Laboratory results as given in patent publication US8066980B2, “Osteogenic synthetic peptides, pharmaceutical compositions comprising the same, and medium containing the same” (Industry Foundation of Chonnam National University, priority 2008, dated 2011).
Where a SMILES comes first, the peptide text is derived from it.

Tests used:
cells = assay: MTT assay for cytotoxicity; type: cell-based; details: within a range of used concentrations
surface marker CD44 = assay: Fluorescence microscopy of surface marker CD44; type: cell-based, mouse; details: at the same concentrations
From the text: The effects of BFP 1 and BFP 2 on the expression of the surface marker CD44 were observed under a fluorescence microscope and the results are given in FIGS. 10a and 10b.
During differentiation, the cells were stained with DAPI, a fluorescent stain that easily binds to the DNA of living cells, and with a PE(phycoerythrin)-conjugated-CD44 antibody.

Row | Molecule | cytotoxicity (MTT assay) (cells) | CD44 staining intensity compared with BFP 1 or BFP 2 (surface marker CD44)
1 | CC(C)[C@H](NC(=O)[C@H](C)NC(=O)[C@H](CCCCN)NC(=O)[C@H](Cc1ccc(O)cc1)NC(=O)[C@@H]1CCCN1C(=O)[C@H](Cc1ccc(O)cc1)NC(=O)[C@H](CO)NC(=O)[C@H](Cc1ccccc1)NC(=O)CNC(=O)[C@H](CCC(N)=O)NC(=O)CN)C(=O)N[C@@H](Cc1ccccc1)C(=O)N[C@@H](CO)C(=O)N[C@H](C(=O)N[C@@H](CCC(N)=O)C(=O)O)[C@@H](C)O [BFP 1, Gly-Gln-Gly-Phe-Ser-Tyr-Pro-Tyr-Lys-Ala-Val-Phe-Ser-Thr-Gln] (H-GQGFSYPYKAVFSTQ-OH) | neither BFP 1 nor BFP 2 are toxic to cells | –
2 | CC(C)[C@H](N)C(=O)N[C@@H](CCC(=O)O)C(=O)N[C@@H](Cc1c[nH]cn1)C(=O)N[C@@H](CC(=O)O)C(=O)N[C@@H](CCCCN)C(=O)N[C@@H](CCC(=O)O)C(=O)N[C@@H](Cc1ccccc1)C(=O)N[C@@H](Cc1ccccc1)C(=O)N[C@@H](Cc1c[nH]cn1)C(=O)N1CCC[C@H]1C(=O)N[C@@H](CCCNC(=N)N)C(=O)N[C@@H](Cc1ccc(O)cc1)C(=O)N[C@@H](Cc1c[nH]cn1)C(=O)N[C@@H](Cc1c[nH]cn1)C(=O)N[C@@H](CCCNC(=N)N)C(=O)O [BFP 2, Val-Glu-His-Asp-Lys-Glu-Phe-Phe-His-Pro-Arg-Tyr-His-His-Arg] (H-VEHDKEFFHPRYHHR-OH) | neither BFP 1 nor BFP 2 are toxic to cells | –
3 | BMP-7: bone morphogenetic protein-7, known as an osteogenesis promoter; comparator (protein, UniProt P18075 293-431, looked up) Bone morphogenetic protein 7: STGSKQRSQNRSKTPKNQEALRMANVAENSSSDQRQACKKHELYVSFRDLGWQDWIIAPEGYAAYYCEGECAFPLNSYMNATNHAIVQTLVHFINPETVPKPCCAPTQLNAISVLYFDDSSNVILKKYRNMVVRACGCH | – | less intense staining
